Entries after “also recorded” stand apart in the source; their conditions may differ. Counter-ions that a name gives are not always drawn.
Columns and labels:
[1] = oral administration, rabbits; due to extensive first-pass metabolism rather than poor absorption; cited from earlier work
[2] = clinical; cited from earlier work
[3] = test system: ovarian adenocarcinoma, metastatic small cell carcinoma of the lung, metastatic breast cancer and refractory lymphoma; conditions: single agent clinical trials; cited from earlier work
[4] = test system: refractory tumors; test: Phase I clinical trial, tumor response to intravenous HMM; format: in vivo, human (cancer patients); conditions: i.v.
Method: Eighteen patients were treated on the one day every four weeks schedule and 28 patients were treated on the daily ×5 four weeks schedule. Tumors included lung, colorectal, gastric, breast, ovarian, renal, bladder, parotide, hepatic, small bowel, thyroid, fibrosarcoma and fibroblastic osteosarcoma. Forty-five of 47 patients had received prior chemotherapy and/or radiotherapy. All patients had histologic or cytologic confirmation of unresectable cancer for which there was no conventional means of therapy that offered reasonable hope of cure or of significant palliation. All patients were ambulatory and in a reasonable state of nutrition. Patients were required to have WBC count ≥4,000/mm^2, platelet count ≥130,000 m^2, hemoglobin ≥10 g/dl, serum creatinine ≤1.5 mg/dl, ECOG performance status <3, fasting serum triglycerides ≤500 mg/dl. […]
Tests done prior to entry into study included a history, physical examination and tumor measurement whenever possible, WBC count, hemoglobin, platelet count, chest x-ray, electrocardiogram, electroencephalogram, urine analysis, triglycerides, SGOT, and serum creatinine. […] Triglycerides were determined before and after each HMM treatment. […]

[5] = cited from earlier work
[6] = Phase I plasma and urine pharmacokinetics of intravenous HMM in Intralipid 10% (GC assay); format: in vivo, human (cancer patients)
Method: (§1) Eighteen patients were treated on the one day every four weeks schedule and 28 patients were treated on the daily ×5 four weeks schedule. Tumors included lung, colorectal, gastric, breast, ovarian, renal, bladder, parotide, hepatic, small bowel, thyroid, fibrosarcoma and fibroblastic osteosarcoma. Forty-five of 47 patients had received prior chemotherapy and/or radiotherapy. All patients had histologic or cytologic confirmation of unresectable cancer for which there was no conventional means of therapy that offered reasonable hope of cure or of significant palliation. All patients were ambulatory and in a reasonable state of nutrition. Patients were required to have WBC count ≥4,000/mm^2, platelet count ≥130,000 m^2, hemoglobin ≥10 g/dl, serum creatinine ≤1.5 mg/dl, ECOG performance status <3, fasting serum triglycerides ≤500 mg/dl. Patients were excluded if they presented with uncontrolled infections, persistent (daily) nausea and/or vomiting, significant chronic obstructive pulmonary disease, any neurologic impairment, major surgery within the proceeding 30 days, radiation to >15% of the bone marrow within 30 days or radiation to total area >30% of bone marrow at any time.
(§2) Tests done prior to entry into study included a history, physical examination and tumor measurement whenever possible, WBC count, hemoglobin, platelet count, chest x-ray, electrocardiogram, electroencephalogram, urine analysis, triglycerides, SGOT, and serum creatinine. Between courses of treatment, the hematology group was checked twice weekly and the hemoglobin, SGOT and serum creatinine once weekly. Triglycerides were determined before and after each HMM treatment. Patients were entered in groups of three at each dose level. New patients were entered at a higher dose level only after the three patients treated at the previous level had been observed for a minimum of three weeks, counting from the last day of treatment. Patients not having significant toxicity at a given dose level were retreated at the next higher dose level but a minimum of three patients who never received HMM were entered at each escalation on each schedule. Dose levels on the daily ×5 schedule were […]. Dose increments for the one-day schedule were 360, 540, 675, 750, 844, and 1,000 mg/m^2.
(§3) Unit dose amounts of drug, Intralipid 10%®, and diluents were changed as dose levels of HMM increased throughout the study. At doses which will be relevant for Phase II evaluation of the parenteral formulation, the following drug preparation scheme was employed. The Mayo Comprehensive Cancer Center Pharmacy weighed 500 mg portions of bulk HMM into sterile vials. HMM was dissolved in 0.1 N hydrochloric acid (sterile HCl for parenteral administration, USP) by adding 27.50 ml of the 0.1 N HCl to each 500 mg vial. The concentration of this solution was 18.2 mg HMM.HCl/ml. The volume of the HMM.HCl solution to be drawn up for each patient was determined by dividing the patient dose level by 18.2 (e.g., for a 750 mg dose, 750 mg divided by 18.2 mg/ml =41.2 ml of the HMM.HCl solution withdrawn from the vial). A 0.22 micron filter assembly was fitted to the syringe containing the appropriate HMM.HCl solution. The volume was filtered into a 500 ml empty sterile and sealed vial. Thus, the correct patient dose was placed in the evacuated vial. An equal volume of air was withdrawn from the sealed vial to maintain vacuum.
(§4) The amount of Intralipid 10%® to be added was determined by dividing the dose by 5.1 (e.g. 750 divided by 5.1=147 ml). The appropriate volume of Intralipid 10%® was added to the 500 ml vial containing the HMM.HCl solution. […]

[7] = HMM concentration in formulation before and after filtration (% theoretical) and precipitation; format: physicochemical; conditions: for % Theoretical HMM Concentration, After Filter: 0.45μ filter
Method: as §3
The amount of Intralipid 10%® to be added was determined by dividing the dose by 5.1 (e.g. 750 divided by 5.1=147 ml). The appropriate volume of Intralipid 10%® was added to the 500 ml vial containing the HMM.HCl solution. Finally, the volume of sodium bicarbonate (sodium bicarbonate for parenteral injection, USP, 1 mEq/ml) was determined by the formula of 0.1 ml sodium bicarbonate for every 20 mg of HMM to be administered (e.g., 750 mg divided by 20=37.5×0.1 ml =3.75 ml sodium bicarbonate). This provided approximately a 4 mg/ml solution of HMM-Intralipid 10%®. A vented tubing set was added to the bottle with the patient's dose. A particulate filter (4.5 micron) was attached to an 18 gauge needle and the filter and needle were placed on the tubing to fill the 500 ml empty bag. The drug was administered at a rate of 2 ml/min or 8 mg/min. Thus, infusion time was lengthened as dose levels increased maintaining a constant rate of drug administration. Fifty (50) ml of normal saline was infused following completion of the HMM infusion.
Details of drug preparation are described in the Methods section while a summary of the formulation procedure is shown in Table 1, below.
This modification of the initial formulation reported in Cancer Treat. Rep., 66, 1579 (1982) to first dissolve the HMM in aqueous HCl, eliminated the use of a toxic organic solvent (ethanol or dimethylacetamide) while ensuring complete and uniform mixing of drug with Intralipid 10%®. Assessment of the formulated product was determined at each step of the procedure by measuring HMM concentrations before and after filtration through 0.45 micron filters (Intralipid 10%® average particle size is approximately 0.40 micron). […] HMM concentrations following filtration of such mixtures yielded <5% of the theoretical HMM concentration.

[8] = oral administration, man; cited from earlier work
[9] = Phase I clinical trial, toxicity of intravenous HMM; format: in vivo, human (cancer patients)
Method: as §1, §2, §3, §4

[10] = i.v., dogs, one specific HMM hydrochloride preparation; cited from earlier work
[11] = man; cited from earlier work
[12] = 540 mg/m^2 i.v., three-compartment open model
[13] = after NaHCO3 (1 mEq/ml) 0.1 ml:5 ml, ca. 4 mg/ml
[14] = dissolved in 0.1 N HCl, ca. 20 mg/ml
[15] = i.v., one-day or daily ×5 schedules

Structure (SMILES): CN(C)c1nc(N(C)C)nc(N(C)C)n1 [HMM, 2,4,6-tris(dimethylamino)-1,3,5-triazine]
- bioavailability [1]: poor bioavailability
- delayed toxicity [2]: moderate anemia, thrombocytopenia, leukopenia, and a peripheral neuropathy
- main acute adverse effects [2]: Nausea and vomiting
- peripheral neuropathy, symptoms [2]: parethesias, hypesthesias, motor weakness, and other sensory alterations
- active against cancers [3]: active against a number of cancers including ovarian adenocarcinoma, metastatic small cell carcinoma of the lung, metastatic breast cancer and refractory lymphoma
- tumor responses [4]: No objective responses; also recorded: no tumor responses were observed
- solubility in water and nontoxic solvents [5]: very limited solubility in water and nontoxic solvents
- steady state volume of distribution [6, 12]: 460 1/m^2
- steady state volume of distribution (Vdss) [6, 12]: 460 l/m^2
- terminal half-life [6, 12]: 10.4 h
- total body clearance (ClTB) [6, 12]: 0.75 1/min/m^2
- accumulation during five-day treatment ([6]; 945 mg/m^2, daily ×5): disproportionate accumulation
- observed vs predicted (simulated) 24 hour trough plasma concentrations ([6]; 945 mg/m^2, daily ×5): significantly greater than predicted
- accumulation during five-day treatment ([6]; 945 mg/m^2, daily ×5, listed as hexamethylmelamine): possible saturation of parent drug elimination
- observed vs predicted (simulated) 24 hour trough plasma concentrations ([6]; 506 and 632 mg/m^2, daily ×5): in agreement with predicted values
- Twenty-four hour urinary recoveries of parent drug ([6]; 24 h, all patients): less than one
- HMM 24 hours following each dose ([6]; daily ×5 schedule, plasma): detected
- change of 24 hour drug concentration over days ([6]; daily ×5 schedule, plasma): increased each day
- Cmax ([6]; human, iv, 540 mg/m^2 one-day schedule, five patients, plasma, read-out: Peak concentrations of HMM at the end of infusion): 2550 to 9350 ng/mL
- half-life ([6]; human, plasma, iv, 540 mg/m^2 i.v., three-compartment open model, read-out: terminal half-life (converted)): 10.4 h
- dose excreted at 24 h ([6]; human, urine, iv, 24 h, read-out: 24 hour urinary recovery of parent drug): < 1%
- plasma levels / plasma AUC compared with oral administration ([6]; i.v. vs oral): Substantially higher plasma AUC values
- consistency of plasma concentrations compared with oral ([6]; i.v. vs oral (D'Incalci)): more consistent plasma concentrations
- demethylated urinary metabolites ([6]; urine): Demethylated urinary metabolites including penta-, tetra-, tri-, and di-methylmelamines were detected in urine
- % Theoretical HMM Concentration, After Filter ([7]; after Intralipid 10% added 4 ml:1 ml, ca. 4 mg/ml): 100%
- % Theoretical HMM Concentration, Before Filter [7, 13]: 100%
- % Theoretical HMM Concentration, After Filter [7, 13]: 100%
- % Theoretical HMM Concentration, Before Filter [7, 14]: 100%
- % Theoretical HMM Concentration, After Filter [7, 14]: 100%
- HMM concentration in the final filtered product, % of theoretical ([7]; final product, 0.45 micron filter): 90-95%
- plasma concentrations of parent drug [8]: Low and variable plasma concentrations of parent drug
- white blood cell counts ([9]; all patients): ≥ 3,000 /μl
- maximally tolerated dose ([9]; daily ×5 schedule, i.v.): ~630 mg/m^2 /day
- maximum-tolerated doses ([9]; five days in a row every four weeks): 500-600 mg/m^2 /day
- myelosuppression ([9]; i.v.): minimal myelosuppression
- peripheral neuropathy compared with oral administration ([9]; i.v. aqueous fat emulsion vs same amount orally): reduced from the level observed when the same amount of HMM is administered orally
- CNS toxicity, peripheral neuropathy [9, 15]: no CNS toxicity, specifically peripheral neuropathy, was noted in any patients
- dose-limiting toxicity [9, 15]: nausea and vomiting
- platelet nadir below 100,000/μl (one patient) ([9]; one-day administration of 540 mg/m^2): 75,000 /μl
- hematologic toxicities ([9]; one-day or five-day regimen): no significant hematologic toxicities
- maximally tolerated dose ([9]; one-day schedule, i.v.): approximately 850 mg/m^2

Structure (SMILES): CN(C)c1nc(N(C)C)nc(N(C)C)n1 [HMM hydrochloride]
- tolerability, intravenous [10]: well-tolerated
- local irritation and phlebitis [11]: severe local irritation and phlebitis
